Patent US9725459B2, “3-oxo-tetrahydro-furo[3,2-B]pyrrol-4(5H)-yl) derivatives I” (GRÜNENTHAL GMBH, priority 2014, dated 2017)
Read-outs that look alike come from different tables or passages of the source.

Assays:
Assay type in all cases: biochemical
human cathepsin S (CatS) = human cathepsin S (CatS) (Homo sapiens (Human), UniProt P25774); assay: CatS functional enzyme assay; settings: for Selectivity Ki(hCatS)/Ki(hCatK): ratio Ki(hCatS)/Ki(hCatK); for Ki: read-out: hCatS, Ki
Procedure: Reference and test compounds were assayed for inhibitory potency (IC50) against human cathepsins using the following assay setups: Recombinant human cathepsins (CatS, CatK, CatL) were purchased from a Enzo Life Sciences. […] For CatS, the enzyme (0.0007 mU/well) was incubated with fluorogeninc substrate (Z-VVR-AMC, 5 μM) at RT for 10 min. For CatK the enzyme (0.00175 mU/well) was incubated with fluorogeninc substrate (Z-FR-AMC, 40 μM) at RT for 10 min. For CatL, the enzyme (0.000874 mU/well) was incubated with fluorogeninc substrate (Z-VVR-AMC, 40 μM) at RT for 10 min. Flourogenic substrate turnover was detected using a microplate reader (Synergy™ H4, BioTek). Ki values were calculated using the Cheng Prusoff equation (Cheng & Prosoff 1973).

human cathepsin K (CatK) = human cathepsin K (CatK) (Homo sapiens (Human), UniProt P43235); assay: CatK functional enzyme assay; settings: recombinant human CatK, substrate Z-FR-AMC 40 μM, pH 5.5; Ki by Cheng Prusoff equation; read-out: hCatK, Ki
Procedure: (§1) Reference and test compounds were assayed for inhibitory potency (IC50) against human cathepsins using the following assay setups:
(§2) Recombinant human cathepsins (CatS, CatK, CatL) were purchased from a Enzo Life Sciences. All assays were carried out in 96-well format using a buffer of 50 mM KH2PO4, 50 mM NaCl, 2 mM EDTA, 0.5 mM DTT and 1% Triton-X-100, pH 6.5 for Cathepsin S and a buffer of 50 mM NaOAc, 10 mM EDTA, 1 mM DTT and 0.01% Triton-X-100, pH 5.5 for CatK/L/B. For CatS, the enzyme (0.0007 mU/well) was incubated with fluorogeninc substrate (Z-VVR-AMC, 5 μM) at RT for 10 min. For CatK the enzyme (0.00175 mU/well) was incubated with fluorogeninc substrate (Z-FR-AMC, 40 μM) at RT for 10 min. For CatL, the enzyme (0.000874 mU/well) was incubated with fluorogeninc substrate (Z-VVR-AMC, 40 μM) at RT for 10 min. Flourogenic substrate turnover was detected using a microplate reader (Synergy™ H4, BioTek). Ki values were calculated using the Cheng Prusoff equation (Cheng & Prosoff 1973).

human cathepsin L (CatL) = human cathepsin L (CatL) (Homo sapiens (Human), UniProt P07711); assay: CatL functional enzyme assay; settings: read-out: hCatL, inhibition [%] at 31.6 μM
Procedure: as §1, §2

[1] = recombinant human CatS, substrate Z-VVR-AMC 5 μM, pH 6.5, Ki by Cheng Prusoff equation

Chain of human cathepsin L (CatL) (P07711 114-333): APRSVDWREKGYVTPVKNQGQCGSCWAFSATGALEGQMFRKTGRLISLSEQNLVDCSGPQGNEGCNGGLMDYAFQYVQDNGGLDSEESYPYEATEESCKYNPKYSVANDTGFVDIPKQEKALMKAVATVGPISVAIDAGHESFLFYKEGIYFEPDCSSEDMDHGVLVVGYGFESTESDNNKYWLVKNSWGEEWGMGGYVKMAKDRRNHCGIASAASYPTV
Chain of human cathepsin S (CatS) (P25774 115-331): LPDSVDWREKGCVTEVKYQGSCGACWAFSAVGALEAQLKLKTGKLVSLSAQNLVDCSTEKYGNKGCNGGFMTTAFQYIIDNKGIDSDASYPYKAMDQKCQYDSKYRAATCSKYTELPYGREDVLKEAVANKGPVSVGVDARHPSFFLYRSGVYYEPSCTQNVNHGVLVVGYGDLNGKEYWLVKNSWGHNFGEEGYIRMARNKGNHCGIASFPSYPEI
Chain of human cathepsin K (CatK) (P43235 115-329): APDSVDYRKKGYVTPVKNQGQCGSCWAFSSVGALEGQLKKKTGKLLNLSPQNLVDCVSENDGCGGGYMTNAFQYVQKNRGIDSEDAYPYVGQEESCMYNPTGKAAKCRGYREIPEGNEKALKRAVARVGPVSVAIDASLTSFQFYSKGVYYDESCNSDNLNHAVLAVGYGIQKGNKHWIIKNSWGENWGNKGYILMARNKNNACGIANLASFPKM

Structure (SMILES) | Selectivity Ki(hCatS)/Ki(hCatK) (human cathepsin S (CatS)) | Ki (human cathepsin S (CatS); [1]) [nM] | Ki (human cathepsin K (CatK)) [nM] | inhibition at 31.6 µM (human cathepsin L (CatL)) [%] | Ki (human cathepsin S (CatS)) [nM]
O=C(N[C@H](C(=O)N1C[C@H](Cl)[C@H]2OCC(=O)[C@H]21)C1CCCCC1)c1ccc(-c2ccc(F)nn2)s1 [Example 38, N-((S)-2-((3aS,6S,6aS)-6-chloro-3-oxotetrahydro-2H-furo[3,2-b]pyrrol-4(5H)-yl)-1-cyclohexyl-2-oxoethyl)-5-(6-fluoropyridazin-3-yl)thiophene-2-carboxamide] | 10.7 | 213 | 20 | 30 | 
O=C(N[C@H](C(=O)N1C[C@H](Cl)[C@H]2OCC(=O)[C@H]21)C1CCCCC1)c1ccc(-c2ccncc2F)s1 [Example 31, N-((S)-2-((3aS,6S,6aS)-6-chloro-3-oxotetrahydro-2H-furo[3,2-b]pyrrol-4(5H)-yl)-1-cyclohexyl-2-oxoethyl)-5-(3-fluoropyridin-4-yl)thiophene-2-carboxamide] | 88.0 | 440 | 5 | 14 | 
O=C(N[C@H](C(=O)N1C[C@H](Cl)[C@H]2OCC(=O)[C@H]21)C1CCCCC1)c1ccc(-c2cccnn2)o1 [Example 20, N-((S)-2-((3aS,6S,6aS)-6-chloro-3-oxotetrahydro-2H-furo[3,2-b]pyrrol-4(5H)-yl)-1-cyclohexyl-2-oxoethyl)-5-(pyridazin-3-yl)furan-2-carboxamide] | 3.2 | 727 | 225 | 16 | 
O=C(N[C@H](C(=O)N1C[C@H](Cl)[C@H]2OCC(=O)[C@H]21)C1CCCCC1)c1ccc(-c2ccnnc2)o1 [Example 19, N-((S)-2-((3aS,6S,6aS)-6-chloro-3-oxotetrahydro-2H-furo[3,2-b]pyrrol-4(5H)-yl)-1-cyclohexyl-2-oxoethyl)-5-(pyridazin-4-yl)furan-2-carboxamide] | 0.8 | 74 | 93 | 12 | 
O=C(N[C@H](C(=O)N1C[C@H](Cl)[C@H]2OCC(=O)[C@H]21)C1CCCCC1)c1ccc(-c2cnccn2)s1 [Example 4, N-((S)-2-((3aS,6S,6aS)-6-chloro-3-oxotetrahydro-2H-furo[3,2-b]pyrrol-4(5H)-yl)-1-cyclohexyl-2-oxoethyl)-5-(pyrazin-2-yl)thiophene-2-carboxamide] | 13.1 |  | 14 | 17 | 184
O=C(N[C@H](C(=O)N1C[C@H](Cl)[C@H]2OCC(=O)[C@H]21)C1CCCCC1)c1ncc(-c2ccccn2)s1 [Example 46, N-((S)-2-((3aS,6S,6aS)-6-chloro-3-oxotetrahydro-2H-furo[3,2-b]pyrrol-4(5H)-yl)-1-cyclohexyl-2-oxoethyl)-5-(pyridin-2-yl)thiazole-2-carboxamide] | 45.9 | 413 | 9 | 6 | 
O=C(N[C@H](C(=O)N1C[C@H](Cl)[C@H]2OCC(=O)[C@H]21)C1CCCCC1)c1ncc(-c2cccnc2)s1 [Example 45, N-((S)-2-((3aS,6S,6aS)-6-chloro-3-oxotetrahydro-2H-furo[3,2-b]pyrrol-4(5H)-yl)-1-cyclohexyl-2-oxoethyl)-5-(pyridin-3-yl)thiazole-2-carboxamide] | 32.8 | 262 | 8 | 26 | 
O=C(N[C@H](C(=O)N1C[C@H](Cl)[C@H]2OCC(=O)[C@H]21)C1CCCCC1)c1ncc(-c2cccnn2)s1 [Example 15, N-((S)-2-((3aS,6S,6aS)-6-chloro-3-oxotetrahydro-2H-furo[3,2-b]pyrrol-4(5H)-yl)-1-cyclohexyl-2-oxoethyl)-5-(pyridazin-3-yl)thiazole-2-carboxamide] | 7.7 | 193 | 25 | 12 | 
Cc1cc(-c2ccc(C(=O)N[C@H](C(=O)N3C[C@H](Cl)[C@H]4OCC(=O)[C@H]43)C3CCCCC3)s2)ccn1 [Example 33, N-((S)-2-((3aS,6S,6aS)-6-chloro-3-oxotetrahydro-2H-furo[3,2-b]pyrrol-4(5H)-yl)-1-cyclohexyl-2-oxoethyl)-5-(2-methylpyridin-4-yl)thiophene-2-carboxamide] | 21.5 | 86 | 4 | 12 | 

Second part, led by results:

Selectivity Ki(hCatS)/Ki(hCatK) (human cathepsin S (CatS)) | Ki (human cathepsin S (CatS); [1]) [nM] | Ki (human cathepsin K (CatK)) [nM] | inhibition at 31.6 µM (human cathepsin L (CatL)) [%] | Structure (SMILES) | Ki (human cathepsin S (CatS)) [nM]
11.1 | 221 | 20 | 28 | O=C(N[C@H](C(=O)N1C[C@H](Cl)[C@H]2OCC(=O)[C@H]21)C1CCCCC1)c1ncc(-c2cncc(F)c2)s1 [Example 47, N-((S)-2-((3aS,6S,6aS)-6-chloro-3-oxotetrahydro-2H-furo[3,2-b]pyrrol-4(5H)-yl)-1-cyclohexyl-2-oxoethyl)-5-(5-fluoropyridin-3-yl)thiazole-2-carboxamide] | 
2.7 | 56 | 21 | 25 | O=C(N[C@H](C(=O)N1C[C@H](Cl)[C@H]2OCC(=O)[C@H]21)C1CCCCC1)c1ccc(-c2ccc[n+]([O-])n2)s1 [Example 79, 3-(5-(((S)-2-((3aS,6S,6aS)-6-chloro-3-oxotetrahydro-2H-furo[3,2-b]pyrrol-4(5H)-yl)-1-cyclohexyl-2-oxoethyl)carbamoyl)thiophen-2-yl)pyridazine 1-oxide] | 
16.2 | 59 | 4 | 14 | CCc1cc(-c2cnc(C(=O)N[C@H](C(=O)N3C[C@H](Cl)[C@H]4OCC(=O)[C@H]43)C3CCCCC3)s2)ccn1 [Example 87, N-((S)-2-((3aS,6S,6aS)-6-chloro-3-oxotetrahydro-2H-furo[3,2-b]pyrrol-4(5H)-yl)-1-cyclohexyl-2-oxoethyl)-5-(2-ethylpyridin-4-yl)thiazole-2-carboxamide] | 
41.8 | 376 | 9 | 4 | O=C(N[C@H](C(=O)N1C[C@H](Cl)[C@H]2OCC(=O)[C@H]21)C1CCCCC1)c1ncc(-c2ccncc2)s1 [Example 49, N-((S)-2-((3aS,6S,6aS)-6-chloro-3-oxotetrahydro-2H-furo[3,2-b]pyrrol-4(5H)-yl)-1-cyclohexyl-2-oxoethyl)-5-(pyridin-4-yl)thiazole-2-carboxamide] | 
2.6 | 42 | 16 | 30 | O=C(N[C@H](C(=O)N1C[C@H](Cl)[C@H]2OCC(=O)[C@H]21)C1CCCCC1)c1ccc(-c2cnnc(O)c2)s1 [Example 80, N-((S)-2-((3aS,6S,6aS)-6-chloro-3-oxotetrahydro-2H-furo[3,2-b]pyrrol-4(5H)-yl)-1-cyclohexyl-2-oxoethyl)-5-(6-hydroxypyridazin-4-yl)thiophene-2-carboxamide] | 
5.9 | 383 | 65 | 5 | O=C(N[C@H](C(=O)N1C[C@H](Cl)[C@H]2OCC(=O)[C@H]21)C1CCCCC1)c1ncc(-c2ccc(C(F)(F)F)nc2)s1 [Example 68, N-((S)-2-((3aS,6S,6aS)-6-chloro-3-oxotetrahydro-2H-furo[3,2-b]pyrrol-4(5H)-yl)-1-cyclohexyl-2-oxoethyl)-5-(6-(trifluoromethyl)pyridin-3-yl)thiazole-2-carboxamide] | 
